Consider two molecules from patent publication US20220000860A1, “COMPOUNDS, COMPOSITIONS, AND METHODS FOR TREATING HUMAN IMMUNODEFICIENCY VIRUS” (OYAGEN, INC., priority 2017, published 2022).

The target of data set [1] is T1, pNL4-3 Vif (Vif multimerization) (Human immunodeficiency virus type 1 group M subtype B, UniProt P12504).
T1 construct: expressed in transfected cells; host or cells: HEK293T
The experiment in a line: Vif FqRET Multimerization Assay. The class given is cell-based, HIV. An excerpt: The quenched fluorescence resonance energy transfer (FqRET) cell-based assay utilized expression of pNL4-3 Vif (accession no. M19921) tagged separately with either a EGFP fluorophore (EGFP-V5-Vif) or a REACh2 quencher (Vif-HA-REACh2) in the pIRES-P vector. The Vif multimerization assay was established through robotic co-transfection of HEK293T (293T) cells with Turbofect (Thermo) and optimized for input plasmid ratio (1:4, fluorophore to quencher) to achieve maximum quench of fluorescent signal. EGFP fluorescence was quantified 24 hours after transfection with a BioTek Synergy4 plate reader (ex=485 nm, em=528 nm) followed by the addition of 0-30 μM compound. The plates were read a second time 24 hours after compound addition. The differential between the first and second read in each well was quantified relative to the DMSO control to determine the change in relative fluorescence units (ΔRFU)
The interaction of 2 molecules of Vif (i.e. dimerization) enables quenching of Enhanced Green Fluorescent Protein (EGFP) signal by Resonance Energy Accepting Chromophore 2 (REACh2), a dark mutant of yellow fluorescent protein that is capable of accepting the EGFP donor fluorescence and quenching its signal without an acceptor signal.

For a further data set, the target named is T2, topoisomerase I (TOP1) (Homo sapiens, UniProt P11387).
T2 sequence (P11387 1-765): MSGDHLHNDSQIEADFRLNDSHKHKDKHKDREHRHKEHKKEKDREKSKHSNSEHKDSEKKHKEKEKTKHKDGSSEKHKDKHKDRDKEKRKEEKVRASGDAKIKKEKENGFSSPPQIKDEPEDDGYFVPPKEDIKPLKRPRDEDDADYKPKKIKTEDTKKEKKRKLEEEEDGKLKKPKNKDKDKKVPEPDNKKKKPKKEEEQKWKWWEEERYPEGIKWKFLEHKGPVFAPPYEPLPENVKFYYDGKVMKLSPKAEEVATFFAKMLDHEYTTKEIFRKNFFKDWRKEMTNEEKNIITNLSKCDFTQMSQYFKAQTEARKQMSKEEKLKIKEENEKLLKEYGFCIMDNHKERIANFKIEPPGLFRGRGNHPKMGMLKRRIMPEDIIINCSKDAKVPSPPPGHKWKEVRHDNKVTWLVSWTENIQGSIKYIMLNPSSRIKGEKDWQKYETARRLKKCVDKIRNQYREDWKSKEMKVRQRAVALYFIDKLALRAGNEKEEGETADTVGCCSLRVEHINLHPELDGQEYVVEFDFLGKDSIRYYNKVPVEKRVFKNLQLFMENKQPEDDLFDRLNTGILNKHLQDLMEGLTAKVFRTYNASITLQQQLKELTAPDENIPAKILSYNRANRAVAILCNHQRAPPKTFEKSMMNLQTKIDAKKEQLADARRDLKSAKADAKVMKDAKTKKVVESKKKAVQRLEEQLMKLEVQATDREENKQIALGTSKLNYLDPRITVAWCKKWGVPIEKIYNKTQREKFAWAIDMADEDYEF
The experiment in a line: topoisomerase I inhibition.

A further data set concerns PBMCs. The experiment in a line: PBMC Acute Infection, cytotoxicity (CC50/CC90). It counts as cell-based. The method, then:
PHA-stimulated cells from at least two normal donors were pooled (i.e. mixed together), diluted in fresh medium to a final concentration of 1×10^6 cells/mL, and plated in the interior wells of a 96-well round bottom microplate at 50 μL/well (5×10^4 cells/well). Pooling of mononuclear cells from more than one donor was used to minimize the variability observed between individual donors in quantitative and qualitative differences in HIV infection and overall response to the PHA and IL-2 of primary lymphocyte populations. Each plate contained virus control wells (cells plus virus) and experimental wells (drug plus cells plus virus) of either 00KE_KER2008 (Subtype A), IIIB (Subtype B), or 98US_MSC5016 (Subtype C). Test drug dilutions were prepared at a 2×concentration and 100 μL of each concentration was placed in appropriate wells. Fifty μL of a predetermined dilution of virus stock was placed in each test well (final MOI≅0.1). After this period, cell-free supernatant samples were collected for analysis of reverse transcriptase (RT) activity with an RT assay. […] In the Table below SI50=CC50/EC50 and SI90=CC90/EC90.

T1 sequence (P12504 whole entry): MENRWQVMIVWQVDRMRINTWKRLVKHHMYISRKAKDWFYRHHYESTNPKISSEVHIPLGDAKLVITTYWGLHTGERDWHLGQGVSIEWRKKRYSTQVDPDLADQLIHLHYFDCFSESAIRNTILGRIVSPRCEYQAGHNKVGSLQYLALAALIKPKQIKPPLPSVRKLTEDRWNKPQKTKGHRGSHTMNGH

In the case of `CCc1c2c(nc3ccc(O)cc13)-c1cc3c(c(=O)n1C2)CNC(=O)[C@]3(O)CC` [SN38-L, (S)-4,11-Diethyl-4,9-dihydroxy-1,2-dihydroquinolino[2′,3′:3,4]pyrrolo[1,2-b][2,7]naphthyridine-3,14(4H,12H)-dione], in data set [1], the EC50 was determined as 0.378 µM and the “Vif multimerization (result in words)” value is listed as “block”. In addition, the “inhibition of topoisomerase I (TOP1) (result in words)” value at topoisomerase I (TOP1) was “do not inhibit”.
As for `CCc1c2c(nc3ccc(N)cc13)-c1cc3c(c(=O)n1C2)CNC(=O)[C@]3(O)CC` [Compound O5-SN, (S)-9-Amino-4,11-diethyl-4-hydroxy-1,2-dihydroquinolino[2′,3′:3,4]pyrrolo[1,2-b][2,7]naphthyridine-3,14(4H,12H)-dione], in the data set on PBMCs (row of isolate 98US_MSC5016, subtype C), the CC90 is > 100 µM. Also, the CC90 in the data set with PBMCs (row of isolate IIIB, subtype B) was > 100 µM. Further, in data set [1], the EC50 was found to be 0.362 µM and the “Vif multimerization (result in words)” value is reported as “block”. The “inhibition of topoisomerase I (TOP1) (result in words)” value against topoisomerase I (TOP1) was “do not inhibit”.

The EC50 is the concentration at which the effect is half-maximal.
